Experimental data from US10563272B2, “Compositions comprising Metarhizium fungi and use thereof as a pesticide” (Cotton Research and Development Corporation, priority 2015, dated 2020).

Experiments:
[1] = system: Bemisia tabaci b-type adults and nymphs; assay: Rate trial on Bollgard II cotton, Norwood 2011-2012 (Example 11): silverleaf whiteflies; format: in vivo; details: DAT 511 250 mL, 500 mL, 1 L/ha; Pyriproxyfen 500 mL/ha; P<0.001
Protocol: This trial was conducted on an irrigated Bollgard II® cotton crop on a commercial cotton farm at Norwood near Moree, NSW, in 2011-2012.
(§1) The following treatments were evaluated against Bemisia tabaci b-type adults and nymphs: • 1. 250 mL/ha DAT 511 spore in oil (1×10^7 spores/ml); • 2. 500 mL/ha DAT 511 spore in oil (1×10^7 spores/ml); • 3. 1 L/ha DAT 511 spore in oil (1×10^7 spores/ml); • 4. 500 mL/ha Pyriproxyfen (conventional insecticide); and • 5. Unsprayed (control).
(§2) The treatment plots were arranged in a randomized complete block design with three replicates per treatment. Each replicated plot measured 40 m wide (40 rows) and 90 m long.
Foliar applications of each treatment were made on 28 Feb. and 20 Mar. 2012. […] On each sampling date, 20 plants from each replicate were randomly selected and B. tabaci adults on one leaf from the 5th node below the terminal of each plant were counted. […]
(§3) In the case of nymphs, one leaf from the 5th node below the terminal of each of the 20 plants was cut, removed and carefully placed individually in a plastic bag. The plastic bags containing the leaves were taken to the laboratory and the B. tabaci nymphs were counted under a binocular microscope. Data of both adults and nymphs were expressed as numbers per leaf per treatment.

[2] = system: Bemisia tabaci b-type adults and nymphs; assay: Rate trial on Bollgard cotton, Cooinda St George 2011-2012 (Example 13): silverleaf whiteflies; format: in vivo; details: P<0.001; FIG. 50
Protocol: This trial was conducted on an irrigated Bollgard cotton crop on a commercial cotton farm at Cooinda, St George, Queensland, in 2011-2012.
as §1, §2
Foliar applications of each treatment were made on 12 Mar. and 26 Mar. 2012. […] On each sampling date, 20 plants from each replicate were randomly selected and B. tabaci adults on one leaf from the 5th node below the terminal of each plant were counted. […]
as §3

CC(COc1ccc(Oc2ccccc2)cc1)Oc1ccccn1 (centres unmarked) [Pyriproxyfen]
SLW adults and nymphs versus the unsprayed [1]: fewer
silverleaf whitefly adults and nymphs versus unsprayed plots [2]: Significantly fewer
